# Laboratory results reported in patent publication US12006500B2 (priority 2020, dated 2024).
# Like-named read-outs stand apart in the source and are kept apart here. d = 2'-deoxy (DNA); r = 2'-OH (RNA)
# Experiments:
# Format in all cases: cell-based
# [1] = test system: SARS-CoV-2 target gene fragments (Spike, ORF1ab, ORF3A & E & M, N & ORF10 & 3'UTR); details: for Primary Screening (KD %, 60 ng/well, 48 h, 96 well) 293T / EC50 (pg/ul, 48 h, 96 well) 293T: Table C; for EC50 293T cells: Table D
# [2] = test system: SARS-CoV-2 target gene fragments (Spike, ORF1ab, ORF3A & E & M, N & ORF10 & 3'UTR); details: for Primary Screening (KD %, 60 ng/well, 48 h, 96 well) A549 / EC50 (pg/ul, 48 h, 96 well) A549: Table C; for EC50 A549 cells: Table D
# [3] = test system: SARS-CoV-2; details: for block of infection at the lowest concentration tested / inhibition of infection compared to the NS control: concentration curves; for block of infection at the lowest concentration tested: 3 nM; for Duplicate A % Infection / Duplicate B % Infection / Mean % infected / Mean % inhibition / Duplicate A % Inhibition / Duplicate B % Inhibition: primary screen using live virus; for Mean % infected / Mean % inhibition: average of the duplicates; for Mean % inhibition: vs non-silencing controls; for Duplicate A % Inhibition / Duplicate B % Inhibition: compared to the mean of the non-silencing controls; for inhibition of infection compared to the NS control: individual siRNAs at varying concentrations, flat response
substance,measurement,setting,value
"CAAGUCAAACAAAUUUACAdTdT (sense CAAGUCAAACAAAUUUACATT; sugars from the 5' end r19 d2, backbone not given here) [Guangzhou5]","Primary Screening (KD %, 60 ng/well, 48 h, 96 well) 293T",[1],75%
same,"Primary Screening (KD %, 60 ng/well, 48 h, 96 well) A549",[2]; A549,80%
CCACCAACAGAGCCTAAAA [COV18],inhibition of the virus,[3],100%
same,block of infection at the lowest concentration tested,[3],complete block of infection
same,Duplicate A % Infection,[3],9%
same,Duplicate B % Infection,[3],7%
same,Mean % infected,[3],8%
same,Mean % inhibition,[3],68%
same,Duplicate A % Inhibition,[3],59%
same,Duplicate B % Inhibition,[3],76%
same,activity in a primary screen using live virus (ranking in words),[3],best activity
CCAGAACAAACCCAAGGAA [COV13],"Primary Screening (KD %, 60 ng/well, 48 h, 96 well) 293T",[1],84%
same,"EC50 (pg/ul, 48 h, 96 well) 293T",[1],3.1 pg/µL
same,EC50 293T cells,[1],3.1 pg/µL
CCCACCAACAGAGCCTAAA [COV17],block of infection at the lowest concentration tested,[3],complete block of infection
CCCTAATGTGTAAAATTAA [COV23],block of infection at the lowest concentration tested,[3],complete block of infection
CCTAATGTGTAAAATTAAT [COV24],"Primary Screening (KD %, 60 ng/well, 48 h, 96 well) 293T",[1],86%
same,"EC50 (pg/ul, 48 h, 96 well) 293T",[1],2.4 pg/µL
same,EC50 293T cells,[1],2.4 pg/µL
same,block of infection at the lowest concentration tested,[3],complete block of infection
CCTTTGAAAAAGGTGACTA [COV5],"Primary Screening (KD %, 60 ng/well, 48 h, 96 well) 293T",[1],85%
same,"Primary Screening (KD %, 60 ng/well, 48 h, 96 well) A549",[2]; A549,84%
CGACTACTAGCGTGCCTTT [COV6],"Primary Screening (KD %, 60 ng/well, 48 h, 96 well) 293T",[1],78%
same,"EC50 (pg/ul, 48 h, 96 well) 293T",[1],17.9 pg/µL
same,EC50 293T cells,[1],17.9 pg/µL
same,"Primary Screening (KD %, 60 ng/well, 48 h, 96 well) A549",[2]; A549,87%
same,"EC50 (pg/ul, 48 h, 96 well) A549",[2]; A549,0.9 pg/µL
same,EC50 A549 cells,[2],0.9 pg/µL
same,inhibition of infection compared to the NS control,[3],~50%
CGCTTCGATTGTGTGCGTA [COV9],"Primary Screening (KD %, 60 ng/well, 48 h, 96 well) 293T",[1],88%
same,"Primary Screening (KD %, 60 ng/well, 48 h, 96 well) A549",[2]; A549,74%
same,inhibition of infection compared to the NS control,[3],~50%
CUAAUCUUGCUGCUACUAAAAUGUC (antisense strand not given here) [Guangzhou23],"Primary Screening (KD %, 60 ng/well, 48 h, 96 well) 293T",[1],79%
same,"Primary Screening (KD %, 60 ng/well, 48 h, 96 well) A549",[2]; A549,87%
CUAAUCUUGCUGCUACUAAdTdT [Guangzhou12],"Primary Screening (KD %, 60 ng/well, 48 h, 96 well) 293T",[1],70%
same,"Primary Screening (KD %, 60 ng/well, 48 h, 96 well) A549",[2]; A549,85%
CUGCUAAUCUUGCUGCUACUAAAAU [Guangzhou21],"Primary Screening (KD %, 60 ng/well, 48 h, 96 well) 293T",[1],81%
same,"Primary Screening (KD %, 60 ng/well, 48 h, 96 well) A549",[2]; A549,91%
CUUGCUGCUACUAAAAUGUdTdT [Guangzhou13],"Primary Screening (KD %, 60 ng/well, 48 h, 96 well) 293T",[1],76%
same,"Primary Screening (KD %, 60 ng/well, 48 h, 96 well) A549",[2]; A549,82%
GCCATTAGTGCAAAGAATA [COV4],inhibition of the virus,[3],100%
same,block of infection at the lowest concentration tested,[3],complete block of infection
same,Duplicate A % Infection,[3],6%
same,Duplicate B % Infection,[3],5%
same,Mean % infected,[3],6%
same,Mean % inhibition,[3],77%
same,Duplicate A % Inhibition,[3],70%
same,Duplicate B % Inhibition,[3],84%
same,activity in a primary screen using live virus (ranking in words),[3],best activity
GCCGCAAATTGCACAATTT [COV15],block of infection at the lowest concentration tested,[3],complete block of infection
same,Duplicate A % Infection,[3],10%
same,Duplicate B % Infection,[3],13%
same,Mean % infected,[3],11%
same,Mean % inhibition,[3],56%
same,Duplicate A % Inhibition,[3],54%
same,Duplicate B % Inhibition,[3],57%
GCUAAUCUUGCUGCUACUAAAAUGU [Guangzhou22],"Primary Screening (KD %, 60 ng/well, 48 h, 96 well) 293T",[1],83%
same,"EC50 (pg/ul, 48 h, 96 well) 293T",[1],23.2 pg/µL
same,"Primary Screening (KD %, 60 ng/well, 48 h, 96 well) A549",[2]; A549,90%
GGAAGAGCCCTAATGTGTA [COV21],block of infection at the lowest concentration tested,[3],complete block of infection
GGAAGGAAGTTCTGTTGAA [COV3],EC50 on the inhibition efficiency,[1],5.8 pg/µL
same,"Primary Screening (KD %, 60 ng/well, 48 h, 96 well) 293T",[1],89%
same,"EC50 (pg/ul, 48 h, 96 well) 293T",[1],5.8 pg/µL
same,EC50 293T cells,[1],5.8 pg/µL
same,EC50 on the inhibition efficiency,[2]; A549,0.3 pg/µL
same,"Primary Screening (KD %, 60 ng/well, 48 h, 96 well) A549",[2]; A549,89%
same,"EC50 (pg/ul, 48 h, 96 well) A549",[2]; A549,0.3 pg/µL
same,EC50 A549 cells,[2],0.3 pg/µL
same,inhibition of the virus,[3],100%
same,"inhibition, single siRNA alone",[3]; 0.041 nM alone,~48%
same,block of infection at the lowest concentration tested,[3],complete block of infection
same,Duplicate A % Infection,[3],3%
same,Duplicate B % Infection,[3],6%
same,Mean % infected,[3],5%
same,Mean % inhibition,[3],81%
same,Duplicate A % Inhibition,[3],84%
same,Duplicate B % Inhibition,[3],79%
same,activity in a primary screen using live virus (ranking in words),[3],best activity
GGACAAUCAAAAAGAGUUGdTdT [Guangzhou16],"Primary Screening (KD %, 60 ng/well, 48 h, 96 well) 293T",[1],83%
same,"EC50 (pg/ul, 48 h, 96 well) 293T",[1],20.4 pg/µL
same,"Primary Screening (KD %, 60 ng/well, 48 h, 96 well) A549",[2]; A549,80%
GGCCGCAAATTGCACAATT [COV14],block of infection at the lowest concentration tested,[3],complete block of infection
same,Duplicate A % Infection,[3],9%
same,Duplicate B % Infection,[3],8%
same,Mean % infected,[3],8%
same,Mean % inhibition,[3],66%
same,Duplicate A % Inhibition,[3],57%
same,Duplicate B % Inhibition,[3],75%
same,activity in a primary screen using live virus (ranking in words),[3],best activity
UCUGCUAAUCUUGCUGCUACUAAAA (antisense strand not given here) [Guangzhou32],"Primary Screening (KD %, 60 ng/well, 48 h, 96 well) 293T",[1],89%
same,"EC50 (pg/ul, 48 h, 96 well) 293T",[1],8 pg/µL
same,EC50 293T cells,[1],~8 pg/µL
same,"Primary Screening (KD %, 60 ng/well, 48 h, 96 well) A549",[2]; A549,90%
UGCUAAUCUUGCUGCUACUAAAAUG (antisense strand not given here) [Guangzhou25],"Primary Screening (KD %, 60 ng/well, 48 h, 96 well) 293T",[1],83%
same,"Primary Screening (KD %, 60 ng/well, 48 h, 96 well) A549",[2]; A549,90%
UUGGUGGUUUUAAUUUUUCACAAAU (antisense strand not given here) [Guangzhou31],"Primary Screening (KD %, 60 ng/well, 48 h, 96 well) 293T",[1],81%
same,"EC50 (pg/ul, 48 h, 96 well) 293T",[1],44 pg/µL
same,"Primary Screening (KD %, 60 ng/well, 48 h, 96 well) A549",[2]; A549,73%
UUUGGUGGUUUUAAUUUUUCACAAA (antisense strand not given here) [Guangzhou30],"Primary Screening (KD %, 60 ng/well, 48 h, 96 well) 293T",[1],86%
same,"Primary Screening (KD %, 60 ng/well, 48 h, 96 well) A549",[2]; A549,78%
